One experiment deals with T1, GPR37 (Mus musculus, UniProt Q9QY42).
T1 sequence (Q9QY42 27-600): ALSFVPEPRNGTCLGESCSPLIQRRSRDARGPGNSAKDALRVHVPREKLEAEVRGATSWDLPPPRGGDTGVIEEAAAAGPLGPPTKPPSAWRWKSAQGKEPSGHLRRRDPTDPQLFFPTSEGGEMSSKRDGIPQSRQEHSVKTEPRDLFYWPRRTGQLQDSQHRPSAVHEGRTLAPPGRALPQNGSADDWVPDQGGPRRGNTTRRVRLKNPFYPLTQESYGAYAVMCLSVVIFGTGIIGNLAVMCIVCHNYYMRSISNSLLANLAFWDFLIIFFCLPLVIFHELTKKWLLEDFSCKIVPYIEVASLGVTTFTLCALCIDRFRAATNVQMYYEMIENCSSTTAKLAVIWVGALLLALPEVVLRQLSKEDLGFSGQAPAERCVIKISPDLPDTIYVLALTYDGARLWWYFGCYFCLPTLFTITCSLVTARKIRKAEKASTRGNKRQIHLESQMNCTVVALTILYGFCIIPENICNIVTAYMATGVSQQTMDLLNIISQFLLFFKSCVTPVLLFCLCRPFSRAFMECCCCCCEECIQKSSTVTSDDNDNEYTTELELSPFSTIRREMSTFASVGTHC
Put plainly: Ca2+ imaging (Fluo-4AM) in peritoneal macrophages (pMΦ) from WT and Gpr37−/− mice. It counts as cell-based. To be noted: for iCa2+ levels: 100 nM. The procedure: (§1) Peritoneal macrophage culture. Peritoneal macrophages were collected by peritoneal lavage with 10 ml warm PBS containing of 1 mM EDTA. Cells were incubated in DMEM supplemented with 10% FBS at 37° C. for 2 h in petri dish and washed with PBS to eliminate non-adherent cells. The adherent cells were used as peritoneal macrophages. Peritoneal macrophages were used after 3 days of culture.
Calcium imaging. HEK 293 cells, with or without transfection of Gpr37, GPR32, ChemR23 or ALX1 cDNA, were loaded with 5 μM Fura-2AM (Invitrogen) for 1 hour and then were resuspended in normal external buffer (140 NaCl, 5 KCl, 2 CaCl2, 2 MgCl2, 10 HEPES, in mM, titrated to pH 7.4 with NaOH) or external Ca^2+-free buffer (140 NaCl, 2 MgCl2, 5 EGTA, 10 HEPES, in mM, titrated to pH 7.4 with NaOH). Peritoneal macrophages, collected from WT and Gpr37 KO mice, were loaded with 5 μM […] (Invitrogen) for 1 hour and then were resuspended in normal external buffer. Images of the HEK 293 cells and macrophages with the excitation wavelength of 340 nm and 380 nm were captured with a cooled Digital CMOS camera (ORCA-Flash 4.0, Hamamatsu Photonics K.K, Japan). The ratio of fluorescence intensity of the two wavelengths in each experiment was analyzed using MetaFluor (Molecular Devices). The Shutter speed and wavelength was controlled by Lambda DG-4 system (Sutter instrument Co., Novato, CA). Values from each of the experiments were normalized to the baseline ratio of 340/380 nm.
Next, we conducted GPR37-mediated Ca^2+ imaging in native pMΦ from WT and Gpr37^−/− mice using Fluo-4AM as a Ca^2+ indicator, since this dye works better than Fura-2AM for pMΦ. […] As compared to iCa^2+ increase in GPR37-expressing HEK293 cells, NPD1 trigger a slow-onset but more persistent Ca^2+ response in pMΦ (FIG. 2B and FIG. 2G). A relatively rapid calcium response in HEK293 cells may result from over-expression of GPR37. A sustained iCa^2+ increase in pMΦ may result from the expression of transient receptor potential (TRP) ion channels in these immune cells. It is noteworthy that macrophages express TRPV2 or TRPM2, which are involved in phagocytosis during bacterial infection. […] NPD1-triggered iCa^2+ increase in pMΦ is also Gi-dependent, since PTX blocked this increase (FIG. 2H). For comparison, ATP-evoked iCa^2+ increase was not altered in GPR37-deficient pMΦ (FIG. 2H).

Experiment [1] relates to peritoneal macrophages (pMΦ). Nature of the experiment: Phagocytosis assay with fluorescence-labeled zymosan particles in peritoneal macrophages. In kind it is cell-based, mouse. To be noted: for MΦ phagocytosis: pMΦ. The procedure:
as §1
Phagocytosis assay. The phagocytosis assay was modified from a previously described protocol (Sommer C, and Kress M. NeurosciLett. 2004, 361, 184-187). pHrodo® Red Zymosan Bioparticles (diameter, 3 μm, Thermo scientific, Catalog: P35364) were rinsed and reconstituted in RPMI medium. Particles were centrifuged (1 min at 100 g) onto adherent peritoneal macrophages at a ratio of 10:1 to synchronize binding and internalization. After 30 min incubation at 37° C., non-adherent beads were removed with cold PBS and cells were fixed with 2% formalin. Four optic fields were photographed with epifluorescence microscopy. Quantification of zymosan particles ingested by MΦ was conducted on at least 200 macrophages/condition/well, and triplicates were included for statistical analysis.
We investigated whether iCa^2+ increases would trigger phagocytosis of pathogens such as zymosan by macrophages. Zymosan is a well-studied pathogen and activates TLR2 to trigger inflammation and inflammatory pain in rodents after intraplantar injection. We tested phagocytosis in pMΦ using fluorescence-labeled zymosan particles.

What is called EC50 is the concentration at which the effect is half-maximal.

For the molecule `CC[C@@H](O)/C=C/C=C\C[C@@H](O)/C=C/C=C/C=C\[C@@H](O)CCCC(=O)O` [RvE1], the “iCa2+ levels” value on GPR37 (pMΦ) is “did not alter iCa^2+ levels”. The MΦ phagocytosis entry in experiment [1] is given as “induced”.
Taken in the same sequence, the figures for `CC/C=C\C[C@H](O)/C=C/C=C\C=C\C=C\[C@@H](O)[C@@H](O)C/C=C\CCC(=O)O` [RvD1] were “did not alter iCa^2+ levels” and “induced”.
Turning to `CC/C=C\C[C@H](O)\C=C/C=C/C=C/[C@H](O)C/C=C\C/C=C\CCC(=O)O` [NPD1, neuroprotectin D1], the “iCa2+ increase” value on GPR37 (30 nM, WT pMΦ) is “robust and sustained iCa^2+ increase”. Moreover, the EC50 on GPR37 (pMΦ, dose response, read-out: EC50 of iCa2+ increase) is 19.5 nM. Besides, in experiment [1] (Gpr37-deficient MΦ), the “NPD1-evoked increases in phagocytic activity” value is reported as “abolished”. The “percentage of pMΦ showing the phagocytosis of zymosan particles” value in experiment [1] (wild-type pMΦ) is on record as “increased”. Besides, the “phagocytic activity (zymosan particles in pMΦ)” value in experiment [1] (wild-type pMΦ, 30 nM for 30 min) is listed as “dose-dependent increase in phagocytic activity”.

Source of the values: patent US12521356B2, “Compositions and methods for treating pain, inflammation, infection, malaria, and sepsis” (Duke University, priority 2018, dated 2026).
